For assay [1], the system named is C57B1/6J mice with spinal cord injury. The experiment in a line: Spinal cord contusion in mice: motor recovery (Basso motor score) after immunization and aNPC transplantation. Type of assay: in vivo, mouse.
Assay [2] has as its system neural progenitor cells (NPCs). Put plainly: Oligodendrocyte differentiation of GFP-expressing NPCs co-cultured with differently activated microglia (NG2, RIP). The assay is classed as cell-based, mouse. The conditions noted are these: direct addition to NPCs, 500 ng/ml, no insulin. The protocol:
(i) Neuralprogenitor cell (NPC) culture. Coronal sections (2 mm thick) of tissue containing the subventricular zone of the lateral ventricle were obtained from the brains of adult C57B16/J mice. The tissue was minced and then incubated for digestion at 37° C., 5% CO2 for 45 mine in Earle's balanced salt solution containing 0.94 mg/ml papain (Worthington, Lakewood, N.J.) and 0.18 mg/ml of L-cysteine and EDTA. After centrifugation at 110×g for 15 min at room temperature, the tissue was mechanically dissociated by pipette trituration. Cells obtained from single-cell suspensions were plated (3500 cells/cm^2) in 75-cm^2 Falcon tissue-culture flasks (BD Biosciences, Franklin Lakes, N.J.), in NPC-culturing medium [Dulbecco's modified Eagles's medium (DMEM)/F12 medium (Gibco/Invitrogen, Carlsbad, Calif.) containing 2 mM L-glutamine, 0.6% glucose, 9.6 μg/ml putrescine, 6.3 ng/ml progesterone, 5.2 ng/ml sodium selenite, 0.02 mg/ml insulin, 0.1 mg/ml transferrin, 2 μg/ml heparin (all from Sigma-Aldrich, Rehovot, Israel), fibroblast growth factor-2 (human recombinant, 20 ng/ml), and epidermal growth factor (human recombinant, 20 ng/ml; both from Peprotech, Rocky Hill, N.J.)]. Spheres were passaged every 4-6 days and replated as single cells. Green fluorescent protein (GFP)-expressing neural progenitor cells (NPCs) were obtained as previously described (Pluchino et al., 2003). […]

Assay [3] has as its system neural progenitor cells (NPCs). Put plainly: NPCs co-cultured with microglia pre-activated by aggregated Aβ and cytokines (β-III-tubulin). Type of assay: cell-based, mouse. The conditions noted are these: 10 days co-culture; Aβ 5 μM, IFN-γ 10 ng/ml. The protocol: (xlvi) Reagents. Recombinant mouse IFN-γ and IL-4 (both containing endotoxin at a concentration below 0.1 ng/μg cytokine) were obtained from R&D Systems (Minneapolis, Minn.). β-amyloid peptides [amyloid protein fragment 1-40 and 1-42 (Aβ1-40/1-42)] were purchased from Sigma-Aldrich, St. Louis, Mo. The Aβ peptides were dissolved in endotoxin-free water, and Aβ aggregates were formed by incubation of Aβ, as described (Ishii et al., 2000).
(li) Neural progenitor cell culture. Coronal sections (2 mm thick) of tissue containing the subventricular zone of the lateral ventricle were obtained from the brains of adult C57B1/6J mice. The tissue was minced and then incubated for digestion at 37° C., 5% CO2 for 45 min in Earle's balanced salt solution containing 0.94 mg/ml papain (Worthington, Lakewood, N.J.) and 0.18 mg/ml of L-cysteine and EDTA. After centrifugation at 110×g for 15 min at room temperature, the tissue was mechanically dissociated by pipette trituration. Cells obtained from single-cell suspensions were plated (3500 cells/cm^2) in 75-cm^2 Falcon tissue-culture flasks (BD Biosciences, San Diego, Calif.), in NPC-culturing medium [Dulbecco's modified Eagles's medium (DMEM)/F12 medium (Gibco/Invitrogen, Carlsbad, Calif.) containing 2 mM L-glutamine, 0.6% glucose, 9.6 μg/ml putrescine, 6.3 ng/ml progesterone, 5.2 ng/ml sodium selenite, 0.02 mg/ml insulin, 0.1 mg/ml transferrin, 2 μg/ml heparin (all from Sigma-Aldrich, Rehovot, Israel), fibroblast growth factor-2 (human recombinant, 20 ng/ml), and epidermal growth factor (human recombinant, 20 ng/ml; both from Peprotech, Rocky Hill, N.J.)]. Spheres were passaged every 4-6 days and replated as single cells. Green fluorescent protein (GFP)-expressing NPCs were obtained as previously described (Pluchino et al., 2003).
(lii) Primary microglial culture. Brains from neonatal (P0-P1) C57B1/6J mice were stripped of their meninges and minced with scissors under a dissecting microscope (Zeiss, Stemi DV4, Germany) in Leibovitz-15 medium (Biological Industries, Kibbutz Beit Ha-Emek, Israel). […]

Consider seven substances from US20090010873A1, “Methods of Cell Therapy, Neurogenesis and Oligodendrogenesis” (YEDA RESEARCH AND DEVELOPMENT CO. LTD., priority 2004, published 2009).

With “MOG/CFA/PBS: immunization with pMOG 35-55 in CFA, PBS i.c.v. instead of aNPCs (MEVGWYRSPFSRVVHLYRNGK; in CFA; UniProt Q61885 63-83, looked up, fragment)”, the “mean motor recovery (BMS) score” value in assay [1] (immunization immediately after SCI (pMOG 35-55 or PBS in CFA 0.5% M. tuberculosis), aNPCs or PBS i.c.v. 1 week later, mean±SEM) came out at 2.71±0.5. Regarding rIGF-I: recombinant IGF-I, in assay [2], the “differentiation of NPCs to NG2-expressing cells” value is given as “significant differentiation to NG2-expressing cells”. On to “MOG, residues 35-55 MEVGWYRSPFSRVVHLYRNGK (emulsified in CFA) [MOG/CFA, MOG peptide 35-55 emulsified in CFA containing 2.5% Mycobacterium tuberculosis]”, for which, in assay [1] (MOG peptide 35-55 in CFA 2.5% M. tuberculosis one week prior to SCI, no aNPCs), the BMS is recorded as 0.35±0.2. Regarding “Aβ(1-42): amyloid protein fragment 1-42 used to activate microglia”, in assay [3], the “GFP^+/βIIIT^+ cells (neurogenesis) with microglia activated by the agent” value is on record as “negative effect was not exhibited”. “OVA/CFA/PBS: nonself protein ovalbumin (OVA) emulsified in CFA, PBS i.c.v.” displayed a BMS in assay [1] (ovalbumin in CFA 2.5% M. tuberculosis, aNPCs or PBS i.c.v.) of 2.2±0.68. On to “altered MOG peptide (45D) MEVGWYRSPFDRVVHLYRNGK [45D peptide, peptide analog of MOG 35-55 containing a serine to aspartic acid substitution]”, for which the BMS stood at 4.11±0.27 in assay [1] (immunization in CFA 2.5% M. tuberculosis 1 week before SCI, aNPCs i.c.v. 1 week after SCI, mean±SEM) and 2.57±0.24 in assay [1] (immunization in CFA 2.5% M. tuberculosis 1 week before SCI, without aNPC transplantation). Regarding “Aβ(1-40): aggregated amyloid protein fragment 1-40 used to activate microglia”, in assay [3], the “GFP^+/βIIIT^+ cells (neurogenesis) with microglia activated by the agent” value is given as “blocked neurogenesis”.
